From patent US10513534B2, “2′-chloro nucleoside analogs for HCV infection” (priority 2012, dated 2019) come the findings set out here.

The subject of series [1] is HCV genotype 1b replicon. The series is described as follows: HCV replicon assay (Zluc luciferase). The following applies: Zluc cells, 72 hours, read-out: HCV Replicon EC50. Format: cell-based. The protocol: Huh-7-derived cell line (Zluc) that harbors an HCV genotype 1b replicon and a luciferase reporter gene was grown in Dulbecco's Modified Eagle Medium (DMEM) supplemented with 10% fetal bovine serum, 2 mM GlutaMAX, 1% MEM nonessential amino acids, 100 IU/mL penicillin, 100 μg/mL streptomycin, and 0.5 mg/mL Geneticin® (G418). For dose response testing the cells were seeded in 96-well plates at 7.5×10^3 cells per well in a volume of 50 μL, and incubated at 37° C./5% CO2. Drug solutions were made up freshly in Huh-7 media as 2× stocks. Ten additional 5-fold dilutions were prepared from these stocks in DMEM without G418. At least three hours after Zluc cells were seeded, drug treatment was initiated by adding 50 μL of drug dilutions to the plates in duplicate. Final concentrations of drug ranged from 100 μM to […]. Cells were then incubated at 37° C./5% CO2. Alternatively, compounds were tested at two concentrations (1 μM and 10 μM). […] For this, media was removed from the plates via gentle tapping. Fifty microliters of ONE-glo luciferase assay reagent was added to each well. The plates were shaken gently for 3 min at room temperature and luminescence was measured on a Victor^3 V 1420 multilabel counter (Perkin Elmer) with a 1 second read time using a 700 nm cut-off filter. The EC50 values were calculated from dose response curves from the resulting best-fit equations determined by Microsoft Excel and XLfit 4.1 software. When screening at two fixed concentrations, the results were expressed as % inhibition at 1 μM and 10 μM.

Series [2] can be described thus: Plasma nucleoside pharmacokinetics after single oral dose in CD-1 mice.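 As to Ms Plasma nucleoside AUC: pmol·h/mL plasma normalized to a 1 µmol/kg dose.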 The series is classed as in vivo. Particulars: single oral dose 10 mg/kg in PEG 200. The protocol: Plasma samples were analyzed for nucleoside by LC-MS/MS. The internal standard (IS) was either 2′-MeG-D3 or tiapride. For protein precipitation and extraction, each plasma sample (50 μL) was treated with 500 μL of 0.2% formic acid in acetonitrile and 20 μL of the internal standard working solution. After vortexing and centrifugation, 500 μL of the sample extracts were transferred to a new plate, dried under N2 at ˜28° C. and reconstituted with 75 μL of 0.2% FA in water. The extracts were chromatographed on an Aquasil C18 column using a gradient system of 0.2% formic acid in water and acetonitrile. The analytes were detected and quantified by tandem mass spectrometry in positive ion mode on an MDS Sciex API5000 equipped with a Turbo Ionspray® interface. The calibration range was 0.500 (LLOQ) to 200 ng/mL in mouse plasma.

The nature of series [3]: Liver triphosphate pharmacokinetics after single oral dose in CD-1 mice.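 As to Ms Liver TP AUC: pmol·h/g liver normalized to a 1 µmol/kg dose.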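 As to Ms Liver TP Cmax: pmol/g liver normalized to a 1 µmol/kg dose.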 More on the design: key: + ≤ 15; 15 < ++ ≤ 50; 50 < +++ ≤ 100; 100 < ++++; BLQ = below limit of quantitation. The following applies: single oral dose 10 mg/kg in PEG 200. Format: in vivo. As to the method: Internal standard solution was added to the homogenate followed by neutralization with 20% ammonium hydroxide solution and addition of 500 μL 1% formic acid. The tissue samples were extracted by weak anion exchange solid phase extraction (SPE). Post extraction, the eluates were evaporated under nitrogen, followed by reconstitution before injection onto the LC-MS/MS system.

The nature of series [4]: in vitro. Particulars: human.

Like-named read-outs stand apart in the source and are kept apart here. A value given as a limit tells only on which side of the number the result lay.

As to `CCOC(=O)NCC(C)(C)C(=O)SCCOP1(=O)OC[C@H]2O[C@@H](n3ccc(=O)[nH]c3=O)[C@](C)(Cl)[C@@H]2O1` (single isomer, unassigned) [Compound 70 Single Diastereomer], the EC50 in series [1] (Hepatitis C virus, 72 h) is less than 0.25 µM. In series [2], the “Ms Plasma nucleoside AUC” value is listed as “++++ (1500 < ++++)” and the “Ms Plasma nucleoside Cmax” value was “++++ (100 < ++++)”. In series [3], the “Ms Liver TP AUC” value was “++++ (1500 < ++++)” and the “Ms Liver TP Cmax” value is reported as “++++ (100 < ++++)”. This molecule displayed a CC50 in series [4] greater than 50 µM.

On to `CCCCOC(=O)[C@@H](C)NP(=O)(OC[C@H]1O[C@@H](n2ccc(=O)[nH]c2=O)[C@](C)(Cl)[C@@H]1O)Oc1ccccc1` (single isomer, unassigned) [Compound 202i Diastereomer 1], for which the EC50 in series [1] is 1 to 10 µM. Also, in series [2], the “Ms Plasma nucleoside AUC” value is given as “++++ (1500 < ++++)” and the “Ms Plasma nucleoside Cmax” value is “++++ (100 < ++++)”. In series [3], the “Ms Liver TP AUC” value is “++++ (1500 < ++++)” and the “Ms Liver TP Cmax” value is recorded as “++++ (100 < ++++)”. In series [4], this molecule had a CC50 greater than 50 µM.

Regarding `C[C@@]1(Cl)[C@H](O)[C@@H](CO)O[C@H]1n1ccc(=O)[nH]c1=O` [Compound 301, 2′-C-Chloro-2′-C-methyluridine], the EC50 in series [1] (Hepatitis C virus, 72 h) is greater than 10 µM. In addition, in series [2], the “Ms Plasma nucleoside AUC” value is recorded as “+++ (500 < +++ ≤ 1500)” and the “Ms Plasma nucleoside Cmax” value is “+++ (50 < +++ ≤ 100)”. In series [3], the “Ms Liver TP AUC” value is given as “BLQ” and the “Ms Liver TP Cmax” value is “BLQ”. The molecule further returned a CC50 in series [4] greater than 50 µM.

As for `CCOc1nc(N)nc2c1ncn2[C@@H]1O[C@H](COP(=O)(N[C@@H](C)C(=O)OC(C)C)Oc2ccccc2)[C@@H](O)[C@@]1(C)Cl` (single isomer, unassigned) [Compound 17ii Diastereomer 1], the concentration giving a half-maximal response (EC50) in series [1] (Hepatitis C virus, 72 h) is 1 to 10 µM. For the same molecule, in series [3], the “Ms Liver TP AUC” value is “BLQ” and the “Ms Liver TP Cmax” value is “BLQ”. In series [4], this molecule returned a CC50 greater than 50 µM.

For `CC(C)(C)C(=O)SCCOP1(=O)OC[C@H]2O[C@@H](n3ccc(=O)[nH]c3=O)[C@](C)(Cl)[C@@H]2O1` (single isomer, unassigned) [Compound 201 Single Diastereomer], in series [1] (Hepatitis C virus, 72 h), the EC50 is less than 0.25 µM. For the same molecule, in series [2], the “Ms Plasma nucleoside AUC” value is recorded as “+++ (500 < +++ ≤ 1500)” and the “Ms Plasma nucleoside Cmax” value was “+++ (50 < +++ ≤ 100)”. In series [3], the “Ms Liver TP AUC” value is listed as “++++ (1500 < ++++)” and the “Ms Liver TP Cmax” value is “++++ (100 < ++++)”. The CC50 in series [4] was greater than 50 µM.

With `CC(C)(C)C(=O)SCCOP1(=O)OC[C@H]2O[C@@H](n3ccc(N)nc3=O)[C@](C)(Cl)[C@@H]2O1` (single isomer, unassigned) [Compound 61 Diastereomer 1], the EC50 in series [1] (Hepatitis C virus, 72 h) was less than 0.25 µM. Also, in series [2], the “Ms Plasma nucleoside AUC” value is “+ (+ ≤ 150)” and the “Ms Plasma nucleoside Cmax” value is reported as “++++ (100 < ++++)”. In series [3], the “Ms Liver TP AUC” value is “+++ (500 < +++ ≤ 1500)” and the “Ms Liver TP Cmax” value is “+++ (50 < +++ ≤ 100)”. The CC50 in series [4] is greater than 50 µM.

Turning to `CC(C)OP1(=O)OC[C@H]2O[C@@H](n3ccc(=O)[nH]c3=O)[C@](C)(Cl)[C@@H]2O1` (single isomer, unassigned) [Compound 37 Diastereomer 1], in series [1] (Hepatitis C virus, 72 h), the EC50 was in the range of 1 to 10 µM. Besides, in series [2], the “Ms Plasma nucleoside AUC” value is “+++ (500 < +++ ≤ 1500)” and the “Ms Plasma nucleoside Cmax” value is recorded as “+++ (50 < +++ ≤ 100)”. Moreover, in series [3], the “Ms Liver TP AUC” value was “++++ (1500 < ++++)” and the “Ms Liver TP Cmax” value is “++++ (100 < ++++)”. This molecule yielded a CC50 in series [4] greater than 50 µM.

Turning to `CC(C)OC(=O)[C@H](C)NP(=O)(OC[C@H]1O[C@@H](n2ccc3c(N)ncnc32)[C@](C)(Cl)[C@@H]1O)Oc1ccccc1` (single isomer, unassigned) [Compound 208ii Diastereomer 1], the EC50 in series [1] (Hepatitis C virus, 72 h) is greater than 10 µM. In series [3], the “Ms Liver TP AUC” value is reported as “BLQ” and the “Ms Liver TP Cmax” value is given as “BLQ”. In series [4], this molecule gave a CC50 greater than 50 µM.

On to `CC(C)OC(=O)[C@H](C)NP(=O)(OC[C@H]1O[C@@H](n2cc(F)c3c(N)ncnc32)[C@](C)(Cl)[C@@H]1O)Oc1ccccc1` (single isomer, unassigned) [Compound 207ii Diastereomer 1], for which the half-maximal effective concentration (EC50) in series [1] (Hepatitis C virus, 72 h) is greater than 10 µM. Also, the CC50 in series [4] was greater than 50 µM.

Consider `C[C@@]1(Cl)[C@H](O)[C@@H](CO)O[C@H]1n1cnc2c(N)ncnc21` [Compound 302, 2′-C-Chloro-2′-C-methyladenosine], for which the concentration giving a half-maximal response (EC50) in series [1] (Hepatitis C virus, 72 h) was greater than 10 µM. This molecule also displayed a CC50 in series [4] greater than 50 µM.

For the molecule `C[C@@H](NP(=O)(OC[C@H]1O[C@@H](n2ccc(=O)[nH]c2=O)[C@](C)(Cl)[C@@H]1O)Oc1ccccc1)C(=O)OCc1ccccc1` (single isomer, unassigned) [Compound 205i Diastereomer 1], the EC50 in series [1] fell in the range of 1 to 10 µM. For the same molecule, in series [2], the “Ms Plasma nucleoside AUC” value is given as “+++ (500 < +++ ≤ 1500)” and the “Ms Plasma nucleoside Cmax” value was “+++ (50 < +++ ≤ 100)”. Also, in series [3], the “Ms Liver TP AUC” value is “++++ (1500 < ++++)” and the “Ms Liver TP Cmax” value was “++++ (100 < ++++)”. In series [4], the CC50 was greater than 50 µM.
